Values joined by “and” are separate entries in the source; they are usually repeats but may differ in a detail not shown here. Equal values may be shown once. Where a name gives a salt, the structure may show the parent alone.
Experiments:
[1] = system: Endotoxin induced shock and mortality; experiment: Endotoxin induced shock and mortality in mice: low dose, chronic mouse endotoxemia; type: in vivo, Male Balb/c mice
Text: Endotoxin administration produces a shock-like state characterized by vascular permeability changes, hypotension, neutropenia, thrombocytopenia,multiple organ damage and death. The major mediators released after endotoxin injection are TNF (tumor necrosis factor), PAF (platelet activating factor) and […] (interleukin I). PAF administration mimics the signs and symptoms of endotoxin induced shock and death and endotoxin also induces the release of PAF. Therefore, the effects of endotoxin should be blocked with a PAF antagonist.
Male Balb/c mice (approximately 20 g) are obtained from Charles River Laboratories and used after a one-two week acclimation period. Animals are given (ip) test compound dissolved in saline or water (sonicated and heated) at different time intervals prior to and after the ip injection of endotoxin (usually 2 hours before LPS endotoxin, and 3-4 hours after). Sigma E. Coli endotoxin, 0111:B4, phenol extraction, catalog #L2630 is used for these studies.
For the chronic endotoxin shock model, a lower dose of endotoxin is administered (generally 15 to 20 mg/kg i.p). This dose gives an LD80 in two to four days following LPS administration. Test compounds are given 2 hours before LPS and 3-4 hours after on the first day, followed by 3 or 4 consecutive days of BID dosing. The number of survivors in each group is recorded each day for a period of 5 to 7 days.
Effect of Compounds Given i.p. in Low Dose, Chronic Mouse Endoxemia

[2] = system: PAF induced lethality; experiment: PAF induced lethality in mice; type: in vivo; conditions: PAF 150 μg/kg IV
Protocol: PAF given I.V. to mice causes an immediate hypotensive shock leading to death in 1 hour or less. Compounds are given intraperitoneally or P.O. at various times before the PAF challenge. Animals alive after 2 hours are counted and the activity of test compounds expressed as % survival corrected for any control (saline treated) animals which survived the PAF challenge.
Effect of Compound Given I.V. or P.O. in Protecting
Mice from a Lethal Challenge of PAF^a
^a lethal challenge of PAF is 150 μg/kg IV.

[3] = molecular target: T1, PAF receptor (Oryctolagus cuniculus, UniProt G1TEI7); experiment: Platelet Activating Factor antagonism in vitro: inhibition of PAF induced platelet aggregation in rabbit platelet rich plasma; type: cell-based, rabbit (New Zealand White); conditions: PAF chall conc 5.0000E-08 M
T1 construct: centrifuged at 800 rpm for 10-15 minutes at room temperature to recover the platelet rich plasma (PRP); endogenous in cells; host or cells: platelets in citrated platelet rich plasma from male New Zealand White rabbits (Oryctolagus cuniculus)
T1 sequence (G1TEI7 1-342): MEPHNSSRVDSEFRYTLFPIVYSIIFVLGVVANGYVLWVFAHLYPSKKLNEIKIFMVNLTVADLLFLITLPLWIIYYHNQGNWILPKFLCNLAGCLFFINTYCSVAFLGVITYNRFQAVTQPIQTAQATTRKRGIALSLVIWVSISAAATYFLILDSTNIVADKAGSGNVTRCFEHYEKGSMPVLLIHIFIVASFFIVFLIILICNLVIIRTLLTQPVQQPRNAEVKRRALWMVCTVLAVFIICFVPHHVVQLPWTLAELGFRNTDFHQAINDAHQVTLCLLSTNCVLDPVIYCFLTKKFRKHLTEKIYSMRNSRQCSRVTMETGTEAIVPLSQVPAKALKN
Protocol: Test compounds are evaluated as PAF receptor antagonists in vitro by measuring inhibition of PAF (platelet activating factor) induced platelet aggregation. Platelet aggregation is measured by a modification of the method described in […], et. al., J. Med. Chem., 27 1174, 1984. […] All syringes and pipets are plastic. The blood is gently mixed and immediately centrifuged at 800 rpm for 10-15 minutes at room temperature to recover the platelet rich plasma (PRP). Platelet poor plasma (PPP) is prepared by centrifuging PRP at 2800 rpm for 10 minutes at room temperature. Dilutions (1:3000) of PRP in Isoton® diluent are made and platelet counts are determined on a Coulter Thrombocounter which is standardized with platelet reference standards (Interscience Platelet Control, Portland, Oreg.). PRP platelet counts are adjusted to approximately 400,000-500,000 platelets/μl by the addition of PPP. L-PAF (Platelet Activating Factor) is obtained from Calbiochem. […] All solutions are made up in plastic tubes, stored on ice and protected from heat and light. Solutions are prepared fresh or frozen at -20° C. and used within 48 hours. Incubation mixtures consisted of 400 μl PRP, 50 μl of saline diluent or test compound and 50 μl of PAF agonist. More specifically, 400 μl of PRP is stabilized in a cuvette for 1-2 minutes at 37° C. in the aggregometer to achieve a stable baseline, then 50 μl of saline or test compound is added and incubated for 5 minutes before addition of the challenge concentration of PAF. A submaximal concentration is determined from the dose response curve for PAF for that experiment. In general, the challenge concentration is 5E-8 or IE-7M. Aggregation is monitored for 5 minutes. Samples containing test compound or diluent are run simultaneously for comparison. Test compounds are initially evaluated at a screening concentration of 1E-5M. […] The recording equipment consists of a dual channel Chronolog aggregometer connected to a dual channel 10MV full scale deflection Omniscribe chart recorder (Houston Instruments). The chart recorder is calibrated daily with the use of a suspension of Bio-Rad latex beads (S-X 12 400 mesh) which has a density slightly greater than rabbit PRP. […] These limits defined a full scale deflection. The aggregation traces are analyzed by a digitizing method (C. Kohler and B. Zoltan, J. Pharm. Methods, 12, 113, 1984) with x, y coordinate data stored in a computer file. A suitable program computes parameters of interest such as the magnitude of aggregation. | ^a dose of compound that gives the indicated % inhibition. | ^b the % inhibition of PAF induced platelet aggregation. | ^c the molar concentration of compound that will inhibit 50% of the | platelet aggretation induced by PAF given at the indicated PAF challenge | concentration.

SMILES | % Survival ([1]; day 0, dose 10 mg/kg i.p.) [%] | No Surv./tot. ([1]; day 0, dose 10 mg/kg i.p.) | % Survival ([1]; day 0, dose 20 mg/kg i.p.) [%] | No Surv./tot. ([1]; day 0, dose 20 mg/kg i.p.) | % Survival ([1]; day 1, dose 10 mg/kg i.p.) [%] | No Surv./tot. ([1]; day 1, dose 10 mg/kg i.p.) | % Survival ([1]; day 1, dose 20 mg/kg i.p.) [%] | No Surv./tot. ([1]; day 1, dose 20 mg/kg i.p.) | % Survival ([1]; day 2, dose 10 mg/kg i.p.) [%] | No Surv./tot. ([1]; day 2, dose 10 mg/kg i.p.) | % Survival ([1]; day 2, dose 20 mg/kg i.p.) [%] | No Surv./tot. ([1]; day 2, dose 20 mg/kg i.p.) | % Survival ([1]; day 3, dose 10 mg/kg i.p.) [%] | No Surv./tot. ([1]; day 3, dose 10 mg/kg i.p.) | % Survival ([1]; day 3, dose 20 mg/kg i.p.) [%] | % Survival ([1]; day 4, dose 10 mg/kg i.p.) [%] | No Surv./tot. ([1]; day 4, dose 10 mg/kg i.p.) | % Survival ([1]; day 5, dose 10 mg/kg i.p.) [%] | No Surv./tot. ([1]; day 5, dose 10 mg/kg i.p.) | No Surv./tot. ([1]; day 6, dose 10 mg/kg i.p.) | also measured
CCCCCCCCCCCCCCOc1ccc(CN(C(=O)NC)c2cccc(C[n+]3csc(C)c3)c2)cc1.[Br-] [5-Methyl-3-[[3-[[(methylamino)carbonyl]-[[4-(tetradecyloxy)phenyl]methyl]amino]phenyl]methyl]thiazolium bromide] | 100 | 30/30 | 100 | 30/30 | 80 | 24/30 | 90 | 27/30 | 46 | 14/30 | 23 | 7/30 | 46 | 14/30 | 20 | 46 | 14/30 | 46 | 14/30 | 14/30 | No Surv./tot. ([1]; day 3, dose 20 mg/kg i.p.): 6/30; % Survival ([1]; day 4, dose 20 mg/kg i.p.): 20%; No Surv./tot. ([1]; day 4, dose 20 mg/kg i.p.): 6/30; % Survival ([1]; day 5, dose 20 mg/kg i.p.): 20%; No Surv./tot. ([1]; day 5, dose 20 mg/kg i.p.): 6/30; No Surv./tot. ([1]; day 6, dose 20 mg/kg i.p.): 6/30; % Survival ([1]; day 7, dose 10 mg/kg i.p.): 46%; No Surv./tot. ([1]; day 7, dose 10 mg/kg i.p.): 14/30; % Survival ([1]; day 7, dose 20 mg/kg i.p.): 20%; No Surv./tot. ([1]; day 7, dose 20 mg/kg i.p.): 6/30
CCCCCCCCCCCCCCOc1ccc(CN(C(C)=O)c2cccc(C[n+]3csc(C)c3)c2)cc1.[Br-] [3-[[3-[Acetyl[[4-(tetradecyloxy)phenyl]methyl]amino]phenyl]methyl]-5-methylthiazolium bromide] | 100 | 30/30 | – | – | 73 | 22/30 | – | – | 33 | 10/30 | – | – | 26 | 8/30 | – | 23 | 7/30 | 23 | 7/30 | 7/30 | % Survival ([1]; day 6, dose 10 mg/kg i.p.): 23%; % Survival ([2]; I.V. 1 mg/kg): 83%; % Survival ([2]; I.V. .25 mg/kg): 100%; % Survival ([2]; I.V. .5 mg/kg): 83%; % Survival ([2]; P.O. 5 mg/kg): 52%; % Survival ([2]; P.O. 10 mg/kg): 75%; % Survival ([2]; P.O. 20 mg/kg): 75%; % INH (inhibition of PAF induced platelet aggregation) ([3]; dose .00001 M): 100.0% and 90.0%
CCCCCCCCCCCCCCOc1ccc(CC(=O)Nc2ccc(C[n+]3csc(C)c3)cc2)cc1.[Br-] [5-Methyl-3-[[4-[[[4-(tetradecyloxy)phenyl]acetyl]amino]phenyl]methyl]thiazolium bromide] | 100 | 30/30 | 100 | 30/30 | 100 | 30/30 | 90 | 27/30 | 80 | 24/30 | 60 | 18/30 | 80 | 24/30 | 60 | 80 | 24/30 | 80 | 24/30 | 24/30 | No Surv./tot. ([1]; day 3, dose 20 mg/kg i.p.): 18/30; % Survival ([1]; day 4, dose 20 mg/kg i.p.): 60%; No Surv./tot. ([1]; day 4, dose 20 mg/kg i.p.): 18/30; % Survival ([1]; day 5, dose 20 mg/kg i.p.): 60%; No Surv./tot. ([1]; day 5, dose 20 mg/kg i.p.): 18/30; % Survival ([1]; day 6, dose 10 mg/kg i.p.): 80%; % Survival ([1]; day 6, dose 20 mg/kg i.p.): 56%; No Surv./tot. ([1]; day 6, dose 20 mg/kg i.p.): 17/30; % Survival ([2]; P.O. 5 mg/kg): 32%; % Survival ([2]; P.O. 20 mg/kg): 32%; % INH (inhibition of PAF induced platelet aggregation) ([3]; dose .00001 M): 100.0%
CCCCCCCCCCCCCCOc1ccc(CC(=O)Nc2cccc(-n3ccnc3C)c2)cc1 [N-[3-(2-Methyl-1H-imidazol-1-yl)phenyl-4-(tetradecyloxy)benzeneacetamidemonohydrochloride] | – | – | – | – | – | – | – | – | – | – | – | – | – | – | – | – | – | – | – | – | % INH (inhibition of PAF induced platelet aggregation) ([3]; dose .00001 M, monohydrochloride): 39.0%
CCCCCCCCCCCCCCOc1ccc(CC(=O)Nc2cccc(C[n+]3ccsc3)c2)cc1.[Br-] [3-[[3-[[[-4-(tetradecyloxy)phenyl]acetyl]amino]phenyl]methyl]thiazolium bromide] | 100 | 30/30 | 100 | 30/30 | 83 | 25/30 | 90 | 27/30 | 66 | 20/30 | 43 | 13/30 | 63 | 19/30 | 40 | 63 | 19/30 | 63 | 19/30 | 19/30 | No Surv./tot. ([1]; day 3, dose 20 mg/kg i.p.): 12/30; % Survival ([1]; day 4, dose 20 mg/kg i.p.): 40%; No Surv./tot. ([1]; day 4, dose 20 mg/kg i.p.): 12/30; % Survival ([1]; day 5, dose 20 mg/kg i.p.): 40%; No Surv./tot. ([1]; day 5, dose 20 mg/kg i.p.): 12/30; No Surv./tot. ([1]; day 6, dose 20 mg/kg i.p.): 12/30; % Survival ([1]; day 7, dose 10 mg/kg i.p.): 63%; No Surv./tot. ([1]; day 7, dose 10 mg/kg i.p.): 19/30; % Survival ([1]; day 7, dose 20 mg/kg i.p.): 40%; No Surv./tot. ([1]; day 7, dose 20 mg/kg i.p.): 12/30; % Survival ([2]; P.O. 40 mg/kg): 40%; % INH (inhibition of PAF induced platelet aggregation) ([3]; dose .000001 M): 93.0% and 62.0%
